In EP4786459A1, “BENZENE RING-CONTAINING COMPOUND HAVING ANALGESIC EFFECT, PREPARATION METHOD THEREFOR, AND USE THEREOF” (West China Hospital, Sichuan University, priority 2023, dated 2025):

How the values were obtained:
[1] = Loss of tail withdrawal reflex (LOTWR) in rats, single intravenous injection, dose escalation: potent analgesic effect and severe adverse reactions; format: in vivo, SD rats; conditions: rat, in vivo, single intravenous injection, minimum dose resulting in serious adverse reactions / minimum effective dose, class symbol, read-out: The safety therapeutic index
Description: (§1) Using the loss of tail withdrawal reflex (LOTWR) in rats as an indicator, the potent analgesic effect of the compounds according to the present invention was evaluated.
(§2) 1.1 Experimental animals: Adult male SD rats weighing between 220-300 g were selected for the experiment. The rats were housed in sawdust-bedded cages with a temperature of 25±1°C, humidity ranging from 40% to 60%, and a 12-hour light/12-hour dark cycle. Each cage contained no more than 5 rats, with free access to water and food.
(§3) • (1) The compound of the present invention, along with the positive control drug remifentanil and the negative control (vehicle), were administered in fixed volumes. A dose escalation approach was employed to determine the minimum effective dose at which the compound of the present invention produces potent analgesic effects, as well as the minimum dose at which severe adverse reactions first appear. • (2) LOTWR lasting for 30 seconds was used as the criterion for generating potent analgesic effects. During the experiment, drugs were administered via the tail vein of rats, with a dosage volume of 0.6 mL per rat and a dosage rate of 0.02 mL/s. Subsequently, an alligator clip was applied at a distance of 1 cm from the base of the rat's tail, clamping once longitudinally and once transversely before being left in place. Meanwhile, the distal end of the alligator clip was continuously oscillated (30 times/min) to continuously generate stimulation. […] When all results were "no LOTWR" after 10 minutes of testing (5 trials), the test was stopped and recorded as "ineffective." • (3) All compounds would undergo a dose escalation for efficacy evaluation, starting from 1 mg/kg (due to the high potency of remifentanil, the lowest dose was set at 1 µg/kg), followed by 5 mg/kg, 10 mg/kg, 20 mg/kg, and so on (increasing by 20 mg/kg increments after 20 mg/kg). The dose escalation would be stopped when rats show signs of death, and the lowest effective dose and the lowest dose at which severe adverse reactions occur would be recorded throughout the process. In this study, severe adverse reactions are defined as apnea, generalized tonic rigidity, convulsions, opisthotonus, seizures, etc.
(§4) 1.3 Evaluation indicators: the minimum effective dose; the minimum dose resulting in serious adverse reactions; the safety therapeutic index = "the minimum dose resulting in serious adverse reactions" / "the minimum effective dose".

rats = experiment: as above; format: in vivo, SD rats; conditions: Rattus norvegicus, single intravenous injection (tail vein), LOTWR lasting for 30 seconds as criterion, class symbol, read-out: The minimum effective dose
Description: as §1, §2, §3, §4

Structure (SMILES) | selectivity ratio [1] | minimal effective dose (rats)
Cc1cc(C)cc(CNC(=O)NCc2ccc(C)cc2N(C)C)c1 [Example 63] | ≤ 2 | ≤ 10 mg/kg
Cc1ccc(CNC(=O)NCc2cnc[nH]2)c(N(C)C)c1 [Example 64] | > 4 | ≤ 10 mg/kg
Cc1ccc(CNC(=O)NCc2ccnn2C)c(N(C)C)c1 [Example 65] | > 4 | ≤ 10 mg/kg
Cc1ccc(CNC(=S)NCc2ccns2)c(N(C)C)c1 [Example 66] | 2 to 4 | ≤ 10 mg/kg
Cc1ccc(CNC(=S)NCc2cccs2)c(N(C)C)c1 [Example 67] | > 4 | ≤ 10 mg/kg
Cc1ccc(CNC(=S)NCc2ccns2)cc1N(C)C [Example 68] | 2 to 4 | ≤ 10 mg/kg
Cc1ccc(CNC(=S)NCc2ccco2)c(N(C)C)c1 [Example 69] | 2 to 4 | ≤ 10 mg/kg
Cc1ccc(CNC(=S)NCc2ccoc2)c(N(C)C)c1 [Example 70] | ≤ 2 | 10 to 20 mg/kg
Cc1ccc(CNC(=S)NCc2ccco2)cc1N(C)C [Example 71] | ≤ 2 | ≤ 10 mg/kg
Cc1ccc(CNC(=S)NCc2ccoc2)cc1N(C)C [Example 72] | 2 to 4 | ≤ 10 mg/kg
Cc1ccc(CNC(=S)NCc2ncc[nH]2)c(N(C)C)c1 [Example 74] | ≤ 2 | > 30 mg/kg
Cc1ccc(CNC(=N)NCc2ncc[nH]2)c(N(C)C)c1 [Example 75] | 2 to 4 | ≤ 10 mg/kg
CCCc1ccc(CNC(=S)NCc2cccs2)c(N(C)C)c1 [Example 76] | > 4 | ≤ 10 mg/kg
CCCc1ccc(CNC(=S)NCc2cccs2)cc1N(C)C [Example 77] | 2 to 4 | ≤ 10 mg/kg
CN(C)c1ccc(CNC(=O)NCc2cccs2)cc1 [Example 78] | ≤ 2 | 10 to 20 mg/kg
Cc1ccc(NC(=S)Nc2ccsc2)cc1N(C)C [Example 79] | ≤ 2 | 20 to 30 mg/kg
Cc1ccc(CCNC(=S)Nc2cccs2)c(N(C)C)c1 [Example 81] | 2 to 4 | ≤ 10 mg/kg
[2H]C([2H])([2H])N(c1cc(C)ccc1CNC(=S)NCc1cccs1)C([2H])([2H])[2H] [Example 82] | 2 to 4 | ≤ 10 mg/kg
Cc1ccc(NC(=S)Nc2cccs2)c(N(C)C)c1 [Example 83] | > 4 | ≤ 10 mg/kg
Cc1ccc(CNC(=S)NCc2ccccc2)c(N(C)C)c1 [Example 85] | ≤ 2 | ≤ 10 mg/kg
Cc1ccc(CNC(=S)NCc2ccccc2)cc1N(C)C [Example 86] | 2 to 4 | ≤ 10 mg/kg
Cc1ccc(CNC(=S)NCc2ccnn2C)c(N(C)C)c1 [Example 87] | > 4 | ≤ 10 mg/kg
CN(C)c1cc(C(F)(F)F)ccc1CNC(=S)NCc1cccs1 [Example 88] | > 4 | ≤ 10 mg/kg
Cc1ccc(CNC(=S)NCc2cccs2)c(N2CCOCC2)c1 [Example 89] | 2 to 4 | ≤ 10 mg/kg
Cc1ccc(CNC(=N)NCc2ccns2)c(N(C)C)c1 [Example 90] | 2 to 4 | ≤ 10 mg/kg
Cc1ccc(CNC(=N)NCc2ccno2)c(N(C)C)c1 [Example 92] | 2 to 4 | ≤ 10 mg/kg
Cc1ccc(CNC(=S)NCc2cc3ccccc3s2)c(N(C)C)c1 [Example 93] | ≤ 2 | ≤ 10 mg/kg
Cc1ccc(CNC(=S)NCc2ccc3ccsc3c2)c(N(C)C)c1 [Example 94] | > 4 | ≤ 10 mg/kg

Structure (SMILES) | selectivity ratio [1] | minimal effective dose (rats)
CN(C)c1cccc(NC(=N)Nc2cccs2)c1 [Example 95] | ≤ 2 | ≤ 10 mg/kg
CN(C)c1cccc(NC(=N)Nc2ccsc2)c1 [Example 96] | ≤ 2 | ≤ 10 mg/kg
CN(C)c1ccccc1NC(=O)Nc1ccns1 [Example 97] | ≤ 2 | > 30 mg/kg
Cc1ccc(CSC(=S)SCc2cccs2)c(N(C)C)c1 [Example 98] | ≤ 2 | > 30 mg/kg
Cc1ccc(CSC(=O)OCc2ccsc2)c(N(C)C)c1 [Example 99] | ≤ 2 | > 30 mg/kg
Cc1ccc(COC(=S)SCc2ccsc2)c(N(C)C)c1 [Example 100] | ≤ 2 | > 30 mg/kg
Cc1ccc(CSC(=O)SCc2cccs2)c(N(C)C)c1 [Example 101] | 2 to 4 | > 30 mg/kg
Cc1ccc(CNC(=O)Nc2ncc[nH]2)c(N(C)C)c1 [Example 103] | > 4 | ≤ 10 mg/kg
Cc1ccc(CNC(=O)Nc2ccn[nH]2)c(N(C)C)c1 [Example 104] | ≤ 2 | > 30 mg/kg
CN(C)c1cc(CNC(=O)NCc2ccco2)ccc1C(F)(F)F [Example 105] | > 4 | ≤ 10 mg/kg
Cc1ccc(CNC(=S)Nc2cncs2)c(N(C)C)c1 [Example 106] | > 4 | ≤ 10 mg/kg
Cc1ccc(CNC(=S)NCc2cc(C)nn2C)c(N(C)C)c1 [Example 107] | 2 to 4 | 10 to 20 mg/kg
Cc1ccc(CNC(=N)NCc2cc(C)nn2C)c(N(C)C)c1 [Example 108] | > 4 | ≤ 10 mg/kg
Cc1ccc(CNC(=N)NCc2ccnn2C)cc1N(C)C [Example 109] | ≤ 2 | ≤ 10 mg/kg
Cc1cc(CNC(=N)NCc2ccc(C)c(N(C)C)c2)n(C)n1 [Example 110] | ≤ 2 | ≤ 10 mg/kg
Cc1ccc(CNC(=N)NCc2ccnn2C)c(N(C)C)c1 [Example 111] | ≤ 2 | ≤ 10 mg/kg
Cc1ccc(CNC(=O)NCc2ccnn2C)cc1N(C)C [Example 112] | > 4 | ≤ 10 mg/kg
Cc1cc(CNC(=O)NCc2ccc(C)c(N(C)C)c2)n(C)n1 [Example 113] | > 4 | 10 to 20 mg/kg
CCCCc1ccc(CNC(=S)Nc2cccs2)c(N(C)C)c1 [Example 114] | 2 to 4 | ≤ 10 mg/kg
Cc1cc(CNC(=S)NCc2ccc(C)c(N(C)C)c2)n(C)n1 [Example 115] | > 4 | ≤ 10 mg/kg
Cc1ccc(CNC(=S)NCc2ccnn2C)cc1N(C)C [Example 116] | 2 to 4 | ≤ 10 mg/kg
Cc1ccc(CNC(=O)NCc2cc(C)nn2C)c(N(C)C)c1 [Example 117] | 2 to 4 | > 30 mg/kg
CN(C)c1cc(C(C)(C)C)ccc1CNC(=S)NCc1cccs1 [Example 118] | ≤ 2 | ≤ 10 mg/kg
CN(C)c1cc(C2CC2)ccc1CNC(=S)NCc1cccs1 [Example 119] | ≤ 2 | ≤ 10 mg/kg
CCCCc1ccc(CNC(=O)NCc2ccco2)cc1N(C)C [Example 120] | > 4 | ≤ 10 mg/kg
Cc1ccc(CSC(=S)OCc2ccsc2)c(N(C)C)c1 [Example 121] | 2 to 4 | > 30 mg/kg
Cc1ccc(NC(=S)NCc2cccs2)c(N(C)C)c1 [Example 122] | > 4 | ≤ 10 mg/kg
